Laboratory results: US10544140B2, “Pharmaceutical composition containing, as active ingredient, 7-azaindolin-2-one derivative or pharmaceutically acceptable salt thereof” (LG CHEM, LTD., priority 2015, dated 2020)
pIC50: −log10 of the molar value.

Assays:
[1] = tested on: MIA PaCa-2 (pancreatic cancer); assay: Cytotoxicity test by MTT assay, MIA PaCa-2; format: cell-based, human; details: for pIC50: Homo sapiens, MIA PaCa-2, 48 h; for cytotoxicity compared with the reference drug sunitinib: MIA PaCa-2
Experimental: (§1) A cytotoxicity test was measured by MTT assay. Each cell line was cultured in a 96-well plate at a density of 1×10^4 cells/well. After 24 hours, the culture medium containing 1% FBS (fetal bovine serum) was treated and reacted with compounds or solutions of compounds for 48 hours. MTT (3-(4,5-dimethylthiazol-2-yl)-2,5-diphenyltetrazolium bromide) solution (5 mg/mL) was added to each well and reacted for 4 hours in an incubator. […] After reacting in an incubator for 30 minutes, the formation of formazan was quantified using a microplate reader at an absorbance of 540 nm. […] The human cancer cell lines used herein are MCF-7 (breast cancer), MDA-MB-231 (breast cancer), HT-29 (colon cancer), DU145 (prostate cancer), U937 (myeloid leukemia), A549 (lung cancer), PANC-1 (pancreatic cancer) and MIA PaCa-2 (pancreatic cancer).

[2] = tested on: MCF-7 (human breast cancer cell line); assay: Cytotoxicity test by MTT assay, MCF-7; format: cell-based; details: for cytotoxicity at 30 µM / pIC50: Homo sapiens, MCF7; for cytotoxicity at 30 µM: MCF-7, 30 μM, 48 h, read-out: Cell viability (% inhibition); for pIC50: MCF-7, 48 h; for cytotoxicity compared with the reference drug sunitinib: MCF-7
DU145 (prostate cancer) = assay: Cytotoxicity test by MTT assay, DU145; format: cell-based, human; details: DU-145; for pIC50: Homo sapiens, DU145, 48 h
Experimental: as §1

[3] = tested on: MDA-MB-231 (breast cancer); assay: Cytotoxicity test by MTT assay, MDA-MB-231; format: cell-based, human; details: for pIC50: Homo sapiens, MBA-MB-231, 48 h
Experimental: as §1

HT-29 (colon cancer) = assay: Cytotoxicity test by MTT assay, HT-29; format: cell-based, human; details: for pIC50: Homo sapiens, HT-29, 48 h
Experimental: as §1

A549 (lung cancer) = assay: Cytotoxicity test by MTT assay, A549; format: cell-based, human; details: for pIC50: Homo sapiens, A549, 48 h
Experimental: as §1

[4] = tested on: PANC-1 (human pancreatic cancer cell line); assay: Cytotoxicity test by MTT assay, PANC-1; format: cell-based; details: for pIC50 / cytotoxicity at 30 µM: Homo sapiens; for pIC50: PANC-1, 48 h; for cytotoxicity at 30 µM: PANC-1, 30 μM, 48 h, read-out: Cell viability (% inhibition); for cytotoxicity compared with the reference drug sunitinib: PANC-1
[5] = Cytotoxicity test by MTT assay, HEK293 normal cell line; format: cell-based; details: human, HEK293 cells (normal cell line)
Experimental: (§2) A cytotoxicity test was measured by MTT assay. Each cell line was cultured in a 96-well plate at a density of 1×10^4 cells/well. After 24 hours, the culture medium containing 1% FBS (fetal bovine serum) was treated and reacted with compounds or solutions of compounds for 48 hours. MTT (3-(4,5-dimethylthiazol-2-yl)-2,5-diphenyltetrazolium bromide) solution (5 mg/mL) was added to each well and reacted for 4 hours in an incubator. […] After reacting in an incubator for 30 minutes, the formation of formazan was quantified using a microplate reader at an absorbance of 540 nm.

[6] = Cytotoxicity test by MTT assay, CHO-K1 normal cell line; format: cell-based; details: Chinese hamster, CHO-K1 cells (normal cell line)
Experimental: as §2

U937 (myeloid leukemia) = assay: Cytotoxicity test by MTT assay, U937; format: cell-based, human; details: for pIC50: Homo sapiens, U-937, U937, 48 h
Experimental: as §1

Structure (SMILES) | pIC50 [1] | cytotoxicity compared with the reference drug sunitinib [1] | cytotoxicity at 30 µM [2] | pIC50 [2] | cytotoxicity compared with the reference drug sunitinib [2] | cytotoxicity compared with the reference drug sunitinib (DU145 (prostate cancer)) | pIC50 (DU145 (prostate cancer)) | cytotoxicity compared with the reference drug sunitinib [3] | pIC50 [3] | pIC50 (HT-29 (colon cancer)) | pIC50 (A549 (lung cancer)) | pIC50 [4] | cytotoxicity at 30 µM [4] | cytotoxicity compared with the reference drug sunitinib [4] | IC50 at 48 h [5] | IC50 at 48 h [6] | pIC50 (U937 (myeloid leukemia)) | cytotoxicity compared with the reference drug sunitinib (HT-29 (colon cancer); HT-29) | cytotoxicity compared with the reference drug sunitinib (A549 (lung cancer); A-549) | cytotoxicity compared with the reference drug sunitinib (U937 (myeloid leukemia); U937)
CCN(CC)CCNC(=O)c1c(C)[nH]c(/C=C2\C(=O)Nc3nc(C)c(O)c(C)c32)c1C [Compound I-39, (Z)—N-(2-(Diethylamino)ethyl)-5-((5-hydroxy-4,6-dimethyl-2-oxo-1H-pyrrolo[2,3-b]pyridin-3(2H)-ylidene)methyl)-2,4-dimethyl-1H-pyrrole-3-carboxamide] | 5.10 | greater than or equal to that of the reference drug sunitinib | 62.7% | 5.22 | greater than or equal to that of the reference drug sunitinib | greater than or equal to that of the reference drug sunitinib | 5.54 | greater than or equal to that of the reference drug sunitinib | 5.27 | 4.68 | 4.70 | 4.82 | 69.6% | greater than or equal to that of the reference drug sunitinib | 40.7 µM | > 90 µM | 5.10 |  |  | 
Cc1nc2c(c(C)c1O)/C(=C/c1[nH]c(C)c(C(=O)NC3CCCCC3)c1C)C(=O)N2 [Compound I-41, (Z)—N-Cyclohexyl-5-((5-hydroxy-4,6-dimethyl-2-oxo-1H-pyrrolo[2,3-b]pyridin-3(2H)-ylidene)methyl)-2,4-dimethyl-1H-pyrrole-3-carboxamide] | 5.30 | greater than or equal to that of the reference drug sunitinib | 78.1% | 5.16 | greater than or equal to that of the reference drug sunitinib | greater than or equal to that of the reference drug sunitinib | > 6.00 | greater than or equal to that of the reference drug sunitinib | 5.45 | 5.35 | 5.22 | 5.23 | 78.3% | greater than or equal to that of the reference drug sunitinib | 37.1 µM | 43.4 µM | 5.49 | greater than or equal to that of the reference drug sunitinib | greater than or equal to that of the reference drug sunitinib | greater than or equal to that of the reference drug sunitinib
